What was measured:
Pkd1 mutant kidneys = assay: Ex vivo cyst formation in Pkd1-/- embryonic kidneys in metanephric organ culture; design: species or system mouse; settings: 10 μM, 100 μM 8-Br-cAMP, E15.5 kidneys, 4 days in culture
Protocol: FIG. 6 includes images that show the effect of BIT-11 on cyst-like tubule expansions in Pkd1 mutant kidneys. Kidneys were harvested from Pkd1 mutant (Pkd1^−/−) mice at embryonic day 15.5 (E15.5) and placed on permeable cell culture inserts. The kidneys were bathed in media containing 100 μM 8-Bromo-adenosine 3′,5′-cyclic monophosphate (cAMP) to stimulate mural epithelial cell proliferation and Cl^−-dependent fluid secretion, key factors in cyst formation. Images of kidneys were captured using a digital camera connected to a dissecting microscope and cystic area was monitored for 4 days. cAMP induced the formation of cyst-like dilations in Pkd1^−/− kidneys that progressively enlarged over 4 days in culture.

ADPKD cell monolayers [1] = assay: cAMP-induced Cl- secretion (short circuit current) across ADPKD cell monolayers; format: cell-based, human; settings: 10 μM for 24 hours, FSK 10 μM, n=10 pairs of monolayers
Protocol: (§1) We designed and synthesized a small molecule LKB1 activator BIT-11 by incorporating an oxadiazole moiety into a unique 3-substituted 2H-chromene derivative. The effects of BIT-11 on phosphorylated AMPK (P-AMPK) and S6 kinase (P-S6K), a downstream target of mTOR, were determined by western blot analysis. To test the drug's effect on Cl^− transport, ADPKD monolayers were incubated in the absence and presence of BIT-11 and then treated with forskolin, a cAMP agonist. Changes in Cl^− transport were measured by short circuit current. For in vitro cyst growth assays, ADPKD cells were seeded within a collagen matrix and treated with EGF and forskolin±BIT-11, and total surface area of cysts per well was calculated from individual cyst diameters.
FIG. 5A-5B show the effect of BIT-11 on cAMP-induced Cl^− secretion by ADPKD cell monolayers. ADPKD cells were grown as polarized monolayers on permeable Snapwell supports. […] ADPKD monolayers were mounted in Ussing chambers and treated with 10 μM benzamil to block the Na^+ current prior to the experiment. FSK (10 μM), a potent cAMP agonist, was added to maximally stimulate anion secretion.

human ADPKD cells [2] = assay: Proliferation of human ADPKD cells (automated cell count); format: cell-based; settings: 10 to 1000 nM, 48 h, 0.05% fetal bovine serum
From the text: Cells were counted using an automated cell counter.

AMPK [3] = assay: P-AMPK levels in kidneys of wild type mice after i.p. dosing; format: in vivo, mouse; settings: wild type mice, 5, 10 or 25 mg/kg i.p. once per day for 4 days, two hours after last dose, compared to vehicle
Protocol: (§2) Normal mice were given BIT-11 at 5, 10 or 25 mg/kg body weight by daily intraperitoneal injection for 4 days. BIT-11 was delivered at 20% DMSO and 80% corn oil. Two hours after the last injection, the mice were sacrificed and the kidneys were snap-frozen and stored at −80 degree C., until tissue lysates were prepared. Tissues were homogenized in a lysis buffer containing detergent and protease and phosphatase inhibitors. Proteins were resolved by SDS PAGE and detected by immunoblot using P-AMPK and AMPK antibodies.
(§3) Another study included dosing wild type mice with BIT-11 once per day for 4 days and measured P-AMPK levels in the kidneys two hours after the last dose.

S6 kinase (S6K) = assay: Western blot of phosphorylated S6 kinase (P-S6K/S6K), downstream target of mTOR, in ADPKD cells; format: cell-based, human; settings: 24 hours, control media 0.05% fetal bovine serum
Protocol: as §1, with “diameters. […] The numbers above blots indicate P-AMPK/AMPK normalized to control. […] ADPKD cells were treated with BIT129, BIT130, and BIT131 (e.g., 100 nm) for 24 h, then cell lysates were prepared. […] The rank order of the effect of the new drugs on AMPK phosphorylation was BIT-131>BIT-130>BIT-129.” for “diameters.”

human ADPKD cells [4] = assay: In vitro cyst growth of ADPKD cells within a collagen matrix; format: cell-based; settings: 5 μM forskolin and 5 ng/ml EGF, cysts diameter ≥50 μm
Protocol: as §1
Cells were seeded in PureCol Type I collagen and stimulated to form cysts with 5 μM forskolin (FSK) and 5 ng/ml epidermal growth factor (EGF) for 3 days. […] FIG. 4A includes representative images of individual wells.

AMPK [5] = assay: Western blot of phosphorylated AMPK (P-AMPK/AMPK) in ADPKD cells; format: cell-based, human; settings: for phosphorylation of AMPK: 100 nm, 24 h; for rank order of the effect on AMPK phosphorylation: western blot
Protocol: as §1, with “diameters. […] The numbers above blots indicate P-AMPK/AMPK normalized to control. […] ADPKD cells were treated with BIT129, BIT130, and BIT131 (e.g., 100 nm) for 24 h, then cell lysates were prepared. […] The rank order of the effect of the new drugs on AMPK phosphorylation was BIT-131>BIT-130>BIT-129.” for “diameters.”

[6] = Tolerability in wild type mice; format: in vivo; settings: mice, 5, 10 and 25 mg/kg i.p., once per day for 4 days
Protocol: as §2, §3

ADPKD cell monolayers [7] = settings: found previously, selective CFTR inhibitor; cited from earlier work
[8] = in vivo; cited from earlier work

O=C(O)c1ccc(-c2noc(C3=Cc4cc(Cl)cc(Cl)c4OC3c3ccccc3)n2)cc1 (stereo not drawn) [BIT-11]
cyst formation in Pkd1-/- kidneys (Pkd1 mutant kidneys): nearly eliminated cyst formation
cAMP-induced Cl- secretion (steady-state short circuit current) (ADPKD cell monolayers [1]): a decrease in cAMP-induced Cl^− secretion
effect on proliferation of human ADPKD cells (human ADPKD cells [2]): increasingly inhibit proliferation of ADPKD cells
P-AMPK levels in the kidneys (AMPK [3]): markedly increased P-AMPK levels in the kidneys
effect on P-S6K/S6K (S6 kinase (S6K)): can inhibit phosphorylation of S6K increasingly at increasing amounts
total cyst surface area (in vitro cyst growth) (human ADPKD cells [4]): can inhibit cyst proliferation
effect on P-AMPK/AMPK (AMPK [5]; ADPKD cells, BIT-11 at 10 nM, 100 nM and 1,000 nM, 24 hours): can promote phosphorylation of AMPK increasingly with increasing amounts
biological activity compared with AMPK activator Metformin (AMPK [5]; comparison with Metformin): much better efficacy
tolerability [6]: well tolerated

CC1(C)OB(c2ccc(-c3noc(C4=Cc5cc(Cl)cc(Cl)c5OC4c4ccccc4)n3)cc2)OC1(C)C (stereo not drawn) [BIT-129]
phosphorylation of AMPK (AMPK [5]; ADPKD cells): can promote phosphorylation of AMPK
rank order of the effect on AMPK phosphorylation (AMPK [5]; ADPKD cells): BIT-131>BIT-130>BIT-129

OB(O)c1ccc(-c2noc(C3=Cc4cc(Cl)cc(Cl)c4OC3c3ccccc3)n2)cc1 (stereo not drawn) [BIT-130]
phosphorylation of AMPK (AMPK [5]; ADPKD cells): can promote phosphorylation of AMPK
rank order of the effect on AMPK phosphorylation (AMPK [5]; ADPKD cells): BIT-131>BIT-130>BIT-129

O=C(O)c1ccc(/C=C2\SC(=S)N(c3cccc(C(F)(F)F)c3)C2=O)cc1 [CFTRinh-172]
anion current across ADPKD monolayers (ADPKD cell monolayers [7]): completely blocked

CN(C)C(=N)N=C(N)N [Metformin]
eliminated by renal excretion [8]: ~80%
